Measurements reported in ChEMBL document CHEMBL3885881, “DrugMatrix”.

Species: Rattus norvegicus
Assay: DrugMatrix - Regimen: Daily Repeat
Format: toxicity, organism-based, Sprague-Dawley
Set-up: regimen Daily Repeat, gender Male, age 6-8 weeks
Conditions: in vivo, po, route oral GAVAGE, vehicle 100 % WATER; for ABSOLUTE BASOPHIL / ABSOLUTE EOSINOPHIL / ABSOLUTE LYMPHOCYTE / ABSOLUTE MONOCYTE / ABSOLUTE SEGMENTED NEUTROPHIL / BASOPHIL / EOSINOPHIL / ERYTHROCYTE COUNT / HEMATOCRIT / HEMOGLOBIN / LEUKOCYTE COUNT / LYMPHOCYTE / MEAN CORPUSCULAR HEMOGLOBIN / MEAN CORPUSCULAR HEMOGLOBIN CONCENTRATION / MEAN CORPUSCULAR VOLUME / MONOCYTE / NEUTROPHIL / NUCLEATED RED BLOOD CELLS / PLATELET COUNT: tissue Blood; for ALANINE AMINOTRANSFERASE / ALKALINE PHOSPHATASE / ASPARTATE AMINOTRANSFERASE / BLOOD UREA NITROGEN / CARBON DIOXIDE / CHLORIDE / CHOLESTEROL / CREATINE PHOSPHOKINASE / CREATININE / GLUCOSE / LACTATE DEHYDROGENASE / LIPASE / PHOSPHORUS / POTASSIUM / SODIUM / TOTAL BILIRUBIN / TOTAL PROTEIN / URIC ACID: tissue Plasma
[1] = 0 mg/kg, 72 h, dose level Control, time 3 day
[2] = 0 mg/kg, 120 h, dose level Control, time 5 day
[3] = 22 mg/kg, 72 h, dose level Low, time 3 day

Structure (SMILES): COc1ccc(C(CN(C)C)C2(O)CCCCC2)cc1 (stereo unspecified) [VENLAFAXINE]
- ABSOLUTE BASOPHIL [1]: 0 CELLS/uL
- ABSOLUTE EOSINOPHIL [1]: 102 CELLS/uL
- ABSOLUTE LYMPHOCYTE [1]: 12758 CELLS/uL
- ABSOLUTE MONOCYTE [1]: 197.17 CELLS/uL
- ABSOLUTE SEGMENTED NEUTROPHIL [1]: 1259.5 CELLS/uL
- BASOPHIL [1]: 0%
- EOSINOPHIL [1]: 0.83%
- ERYTHROCYTE COUNT [1]: 5.3 x10E6/uL
- HEMATOCRIT [1]: 33.47%
- HEMOGLOBIN [1]: 13.12 G/DL
- LEUKOCYTE COUNT [1]: 14.32 x10E3/uL
- LYMPHOCYTE [1]: 89.33%
- MEAN CORPUSCULAR HEMOGLOBIN [1]: 24.8 pg
- MEAN CORPUSCULAR HEMOGLOBIN CONCENTRATION [1]: 39.18 G/DL
- MEAN CORPUSCULAR VOLUME [1]: 63.25 fL
- MONOCYTE [1]: 1.33%
- NEUTROPHIL [1]: 8.5%
- NUCLEATED RED BLOOD CELLS [1]: 0 /100WBC
- PLATELET COUNT [1]: 1313.17 x10E3/uL
- ALANINE AMINOTRANSFERASE [1]: 52.67 u/L
- ALKALINE PHOSPHATASE [1]: 372 u/L
- ASPARTATE AMINOTRANSFERASE [1]: 82.83 u/L
- BLOOD UREA NITROGEN [1]: 15 mg/dL
- CARBON DIOXIDE [1]: 25.67 mmol/L
- CHLORIDE [1]: 102.17 MEQ/L
- CHOLESTEROL [1]: 68.83 mg/dL
- CREATINE PHOSPHOKINASE [1]: 285 u/L
- CREATININE [1]: 0.18 mg/dL
- GLUCOSE [1]: 149.17 mg/dL
- LACTATE DEHYDROGENASE [1]: 263.83 u/L
- LIPASE [1]: 10.17 u/L
- PHOSPHORUS [1]: 12.58 mg/dL
- POTASSIUM [1]: 6.58 MEQ/L
- SODIUM [1]: 144.22 MEQ/L
- TOTAL BILIRUBIN [1]: 0.22 mg/dL
- TOTAL PROTEIN [1]: 5.83 G/DL
- URIC ACID [1]: 1.58 mg/dL
- ABSOLUTE BASOPHIL [2]: 0 CELLS/uL
- ABSOLUTE EOSINOPHIL [2]: 24 CELLS/uL
- ABSOLUTE LYMPHOCYTE [2]: 11134.17 CELLS/uL
- ABSOLUTE MONOCYTE [2]: 56.33 CELLS/uL
- ABSOLUTE SEGMENTED NEUTROPHIL [2]: 1235.5 CELLS/uL
- BASOPHIL [2]: 0%
- EOSINOPHIL [2]: 0.17%
- ERYTHROCYTE COUNT [2]: 5.68 x10E6/uL
- HEMATOCRIT [2]: 35.72%
- HEMOGLOBIN [2]: 13.93 G/DL
- LEUKOCYTE COUNT [2]: 12.45 x10E3/uL
- LYMPHOCYTE [2]: 89.5%
- MEAN CORPUSCULAR HEMOGLOBIN [2]: 24.63 pg
- MEAN CORPUSCULAR HEMOGLOBIN CONCENTRATION [2]: 39.13 G/DL
- MEAN CORPUSCULAR VOLUME [2]: 62.97 fL
- MONOCYTE [2]: 0.5%
- NEUTROPHIL [2]: 9.83%
- NUCLEATED RED BLOOD CELLS [2]: 0 /100WBC
- PLATELET COUNT [2]: 1204 x10E3/uL
- ALANINE AMINOTRANSFERASE [2]: 59.5 u/L
- ALKALINE PHOSPHATASE [2]: 415.67 u/L
- ASPARTATE AMINOTRANSFERASE [2]: 91.33 u/L
- BLOOD UREA NITROGEN [2]: 17 mg/dL
- CARBON DIOXIDE [2]: 26.33 mmol/L
- CHLORIDE [2]: 104.17 MEQ/L
- CHOLESTEROL [2]: 77 mg/dL
- CREATINE PHOSPHOKINASE [2]: 249.67 u/L
- CREATININE [2]: 0.21 mg/dL
- GLUCOSE [2]: 148.33 mg/dL
- LACTATE DEHYDROGENASE [2]: 168.5 u/L
- LIPASE [2]: 10.17 u/L
- PHOSPHORUS [2]: 12.92 mg/dL
- POTASSIUM [2]: 7.09 MEQ/L
- SODIUM [2]: 148.37 MEQ/L
- TOTAL BILIRUBIN [2]: 0.23 mg/dL
- TOTAL PROTEIN [2]: 6.3 G/DL
- URIC ACID [2]: 1.77 mg/dL
- ABSOLUTE BASOPHIL [3]: 0 CELLS/uL
- ABSOLUTE EOSINOPHIL [3]: 59.67 CELLS/uL
- ABSOLUTE LYMPHOCYTE [3]: 13145.33 CELLS/uL
- ABSOLUTE MONOCYTE [3]: 145.33 CELLS/uL
- ABSOLUTE SEGMENTED NEUTROPHIL [3]: 1183 CELLS/uL
- BASOPHIL [3]: 0%
- EOSINOPHIL [3]: 0.33%
- ERYTHROCYTE COUNT [3]: 5.58 x10E6/uL
- HEMATOCRIT [3]: 35.93%
- HEMOGLOBIN [3]: 14.03 G/DL
- LEUKOCYTE COUNT [3]: 14.53 x10E3/uL
- LYMPHOCYTE [3]: 90.67%
- MEAN CORPUSCULAR HEMOGLOBIN [3]: 25.13 pg
- MEAN CORPUSCULAR HEMOGLOBIN CONCENTRATION [3]: 39.1 G/DL
- MEAN CORPUSCULAR VOLUME [3]: 64.33 fL
- MONOCYTE [3]: 1%
- NEUTROPHIL [3]: 8%
- NUCLEATED RED BLOOD CELLS [3]: 0 /100WBC
- PLATELET COUNT [3]: 1219 x10E3/uL
- ALANINE AMINOTRANSFERASE [3]: 59.67 u/L
- ALKALINE PHOSPHATASE [3]: 338 u/L
- ASPARTATE AMINOTRANSFERASE [3]: 94.33 u/L
- BLOOD UREA NITROGEN [3]: 15.67 mg/dL
- CARBON DIOXIDE [3]: 24.33 mmol/L
- CHLORIDE [3]: 103.67 MEQ/L
- CHOLESTEROL [3]: 73.67 mg/dL
- CREATINE PHOSPHOKINASE [3]: 320.67 u/L
- CREATININE [3]: 0.17 mg/dL
- GLUCOSE [3]: 162 mg/dL
- LACTATE DEHYDROGENASE [3]: 412.33 u/L
- LIPASE [3]: 11.33 u/L
- PHOSPHORUS [3]: 13.2 mg/dL
- POTASSIUM [3]: 6.69 MEQ/L
- SODIUM [3]: 146.03 MEQ/L
- TOTAL BILIRUBIN [3]: 0.13 mg/dL
- TOTAL PROTEIN [3]: 6.2 G/DL
- URIC ACID [3]: 2.33 mg/dL
